# Reference: patent US6855329B1, “Surface coating spatially controlled patterns” (Massachusetts Institute of Technology, priority 1998, dated 2005)
# Experiments:
# [1] = cited from earlier work
# [2] = system: Bovine aortic endothelial cells (BAECs); conditions: 48hr
# Procedure: (§1) A patterned polymer surface is prepared as described in Example 1;
# (§2) Bovine aortic endothelial cells (BAECs) were maintained in low glucose Dulbecco's modifed Eagle's medium (DMEM) supplemented with 10% fetal bovine serum, 0.5% penicillin, 0.5% streptomycin and 1% L-glutamine in a humidified incubator at 37° C. and 5% CO2. Cells were passaged by trypsinisation before reaching confluence, usually every fifth day. Fresh media were added every other day. PC12 cells (ATCC CRL 1721) were grown in suspension culture in F-12K media supplemented with 15% horse serum, 2.5% fetal bovein serum, 0.5% penicillin, 0.5% streptomycin and 1% L-glutamine in a humidified incubator at 37° C. and 5% CO2. Cells were passaged 1:5 every third day. All cell culture reagents were obtained from Sigma unless otherwise stated.
# (§3) BAECs between passages 7 and 9 were removed from tissue culture flasks by trypsinisation, pelleted by centrifugation, resuspended, washed three times and diluted to the appropriate concentration in serum-free MDEM. PC12 cells were primed with culture medium containing 50 ng/ml 7S nerve growth factor (NGF) 48 h prior to the experiment. The cells were pelleted by centrifugation, washed three times with serum-free F-12K medium, passed through a 22-guage needle to obtain a single cell suspension, and diluted to the appropriate concentration with serum-free. F-12K medium supplemented with 50ng/ml 7S NGF. For both cell types, approximately 10,000 cells/cm^2 were added to each sample and the plates returned to the incubator for the duration of the experiment (48hr). At the end point of the experiment, the samples were washed gently with PBS to remove unattached cells and visualised with a Nikon Diaphot TMD inverted microscope equipped with a Hitachi HV-C20 high resolution CCD video camera using phase contrast objectives. Images were digitised using NIH Image (v1.61) image analysis software. In addition, some BAEC samples were fixed in 10% neutral buffered formalin for 10 min, washed with water, and stained with hematoxylin for visualisation.
# [3] = system: smooth muscle cells, fibroblasts or platelets; conditions: binds to the integrin on human endothelial cells; cited from earlier work
# PC12 cells = conditions: NGF-primed cells, 48hr
# Procedure: as §1, §2, §3
substance,measurement,setting,value
CSRARKQAASIKVAVSADR,water solubility,[1],water soluble
biotin-G11 GRGDS (SEQ ID NO:18),cell adhesion to the 30 or 12 μm-wide lines,[2]; 30 or 12 μm-wide lines,little cell adhesion
same,cell coverage of the 70 and 50 μm width lines,[2]; 70 and 50 μm width lines,Complete cell coverage
same,adhesion and spreading of BAECs on functionalised lines,"[2]; serum-free medium, approximately 10,000 cells/cm^2, no adhesion to unfunctionalised areas between the lines",adhered and spread
REDV (SEQ ID NO:4),"adhesion or spreading of smooth muscle cells, fibroblasts or platelets",[3],does not support adhesion or spreading
IKVAV (SEQ ID NO:2),water solubility,[1],not significantly water soluble
biotin-G5CSRARKQAASIKVAVSADR (SEQ ID NO:19),neurite outgrowth of PC12 cells on the micropattern,PC12 cells; neurites restricted from crossing the line boundary,Directionally controlled neurite outgrowth was stimulated
same,adherence of PC12 cells to functionalised lines,"PC12 cells; serum-free F-12K with 50ng/ml 7S NGF, only a small degree of cell adhesion between the lines",selective adherence
